Laboratory results: patent US10092578B2, “Active agents and their oligomers and polymers” (Polymerix Corporation, priority 2006, dated 2018)
≈ marks a conversion by molar mass, not a printed value.

Columns and labels:
[1] = system: human derived Staphylococcus epidermidis; assay: Minimum Inhibitory Concentration (MIC) assessment, Staph epidermidis; assay type: cell-based; conditions: for antibacterial activity (in words): MIC test, summary of Table 3; for MIC: Staphylococcus epidermidis, 24 hours, particle suspensions in water, read-out: MIC versus Staph epidermidis
Experimental: (§1) Samples of Examples 1 and 2 and Comparative Example 1 were evaluated in two different bacterial growth assays. The first test was a standard Minimum Inhibitory Concentration (MIC) assessment involving serial dilution of test compound particle suspensions in water. In this test, the samples were evaluated at 24 hours against human derived Staphylococcus epidermidis and Corynebacter sp. form organisms. The second test utilized a Biosys® system to assess the effect of the samples added as a dry powder directly to a nutrient broth containing either human derived Staph epidermidis or a mixed Coryne/Staph milieu. In the case of the Biosys test, the bacteria laced nutrient broth alone was used as the negative control.

[2] = system: Corynebacter sp. form organisms; assay: Minimum Inhibitory Concentration (MIC) assessment, Coryne form; assay type: cell-based; conditions: 24 hours, particle suspensions in water; read-out: MIC versus Coryne form
Experimental: as §1

[3] = system: mixed Coryne/Staph milieu; assay: Biosys bacterial growth test, mixed Coryne/Staph; assay type: cell-based, Corynebacter/Staph; conditions: for % Red (average reduction in bacterial growth rates): 24 hours
Experimental: as §1

[4] = system: human derived Staph epidermidis; assay: Biosys bacterial growth test, Staph epidermidis; assay type: cell-based, Staphylococcus epidermidis; conditions: for % Red (average reduction in bacterial growth rates): 24 hours
Experimental: as §1

[5] = Hydrolytic release of salicylic acid in buffer at 32° C., HPLC; assay type: physicochemical; conditions: acetate buffer pH 5.5, 32° C.
Experimental: Examples 1, 3 and 4 (both A & B) and Comparative Examples 1 and 2 were evaluated for rate of release of salicylic acid. Samples were hydrolyzed at 32° C. using acetate buffer (pH 5.5) as relevant condition for typical skin pH. The materials were placed in 50 mL centrifuge tubes for elution using conventional elution protocols, shaking the tubes in a thermostatic environment. Aliquots were taken from the tubes at periodic intervals and immediately placed in a vial and analyzed by HPLC as soon as they were removed from the hydrolysis vessel.
The respective salicylic acid release rates of the Example 4A and Example 4B at pH 5.5 are compared in FIG. 5. The rates of Example 4B at pH of 5.5 and 7.29 are compared in FIG. 6.

[6] = Salicylic acid release into artificial sweat; assay type: physicochemical; conditions: 35° C.
Experimental: FIG. 1 illustrates salicylic acid release at 35° C. Samples of Example 1 (square), Example 2 (triangle) and Comparative Example 1 (diamond) were placed in artificial sweat or artificial sweat plus proteins and incubated at 35° C. for 3 to 5 minutes, 1, 2, 4, 6 and 24 hours, rapidly filtered (0.22 μm filter) and analyzed for salicylic acid by HPLC.
Samples of Example 1 and 2 and Comparative Example 1 were placed in artificial sweat or artificial sweat plus proteins and incubated at 35° C. for 3 to 5 minutes, 1, 2, 4, 6 and 24 hours, rapidly filtered (0.22 μm filter) and analyzed for salicylic acid by HPLC.

[7] = Particle size determination by light scattering; assay type: physicochemical; conditions: for Average % of particles below 10 μm / Average % of particles below 100 μm / Average % of particles below 200 μm: average of 3 samples; for Volume Mean Particle Diameter: light scattering
Text: Light scattering techniques were employed to assess the particle size distributions of samples of the compositions of Examples 1 and 2 and Comparative Example 1.

MIC [1] | salicylic acid release rate (in words) [6] | Salicylic Acid Release (Weight Percent of Maximum Release) ([6]; 0.05 hrs) | Salicylic Acid Release (Weight Percent of Maximum Release) ([6]; 1 hr) | Salicylic Acid Release (Weight Percent of Maximum Release) ([6]; 2 hrs) | Salicylic Acid Release (Weight Percent of Maximum Release) ([6]; 4 hrs) | Salicylic Acid Release (Weight Percent of Maximum Release) ([6]; 6 hrs) | Salicylic Acid Release (Weight Percent of Maximum Release) ([6]; 24 hrs) | Average % of particles below 10 μm [7] | Compound | antibacterial activity (in words) [1] | % Red (average reduction in bacterial growth rates) ([3]; 0.25 mg/ml) | % Red (average reduction in bacterial growth rates) ([3]; 0.5 mg/ml) | % Red (average reduction in bacterial growth rates) ([3]; 2.5 mg/ml) | % Red (average reduction in bacterial growth rates) ([3]; 5 mg/ml) | % Red (average reduction in bacterial growth rates) ([3]; 50 mg/ml) | % Red (average reduction in bacterial growth rates) ([4]; 0.25 mg/ml) | % Red (average reduction in bacterial growth rates) ([4]; 0.5 mg/ml) | % Red (average reduction in bacterial growth rates) ([4]; 2.5 mg/ml) | % Red (average reduction in bacterial growth rates) ([4]; 5 mg/ml) | % Red (average reduction in bacterial growth rates) ([4]; 50 mg/ml) | other results
> 1670 µg/mL | more moderate | 1.46 Weight Percent of Maximum Release | 4.93 Weight Percent of Maximum Release | 6.03 Weight Percent of Maximum Release | 6.81 Weight Percent of Maximum Release | 10.06 Weight Percent of Maximum Release | 26.42 Weight Percent of Maximum Release | 32.1% | O=C(CCCCC(=O)Oc1ccccc1C(=O)O)Oc1ccccc1C(=O)O [Comparative Example 1, Bis(2-carboxyphenyl)adipate, reference compound] | little or no | 0% | 5% | 6% | 100% | 100% | 0% | 57% | 63% | 100% | 100% | MIC [2]: > 1670 µg/mL; hydrolysis completion ([5]; in four days): about 90%; Average % of particles below 100 μm [7]: 96.03%; Average % of particles below 200 μm [7]: 99.99%; Volume Mean Particle Diameter [7]: 28.85 μm
200 to 1000 µg/mL (≈ 0.534 to 2.67 mM) | rapid initial | 20.035 Weight Percent of Maximum Release | 45.525 Weight Percent of Maximum Release | 54.910 Weight Percent of Maximum Release | 59.795 Weight Percent of Maximum Release | 54.890 Weight Percent of Maximum Release | 64.520 Weight Percent of Maximum Release | 11.87% | O=C(COCC(=O)Oc1ccccc1C(=O)O)Oc1ccccc1C(=O)O [Example 1, Bis(2-carboxyphenyl)diglycolate] | strongest | 66% | 29% | 100% | 100% | 100% | 10% | 95% | 100% | 100% | 100% | MIC [2]: ~200 µg/mL (≈ 0.534 mM); antibacterial activity (in words) ([3]; Biosys, summary of Table 5): strongest; antibacterial activity (in words) ([4]; Biosys, summary of Table 4): strongest; time until hydrolysis is complete [5]: 2.5 h; Average % of particles below 100 μm [7]: 91.69%; Average % of particles below 200 μm [7]: 99.58%; Volume Mean Particle Diameter [7]: 45.64 μm
~2500 µg/mL (≈ 5.98 mM) | rapid initial | 35.25 Weight Percent of Maximum Release | 47.44 Weight Percent of Maximum Release | 44.85 Weight Percent of Maximum Release | 46.07 Weight Percent of Maximum Release | 51.20 Weight Percent of Maximum Release | 58.23 Weight Percent of Maximum Release | 37.54% | O=C(COCCOCC(=O)Oc1ccccc1C(=O)O)Oc1ccccc1C(=O)O [Example 2, Bis(2-carboxyphenyl)-3,6-dioxaoctanedioate] | modest | 5% | 0% | 100% | 100% | 100% | 0% | 0% | 50% | 100% | 100% | Particle size distribution, Comments [7]: Bimodal size; Average % of particles below 100 μm [7]: 80.89%; Average % of particles below 200 μm [7]: 99.39%; Volume Mean Particle Diameter [7]: 48.82 μm
